Consider 26 compounds from patent US9802927B2, “Oxadiazine compounds and methods of use thereof” (Denali Therapeutics, Inc., priority 2015, dated 2017).

In this assay the test system is Aβ42. The experiment in a line: In vitro cell screening assay in H4 cells expressing human APP751: Aβ42 by sandwich ELISA. The class given is cell-based. The following applies: compounds 0.003-10 μM, incubated overnight (16-18 h), sandwich ELISA of supernatant. A digest of the protocol:
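H4 neuroglioma cells stably expressing wild-type human APP751, switched to Pro293 medium and treated with compounds (0.003-10 μM, 0.33% DMSO) for 16-18 h at 37 °C. Supernatant Aβ42 quantified by sandwich ELISA (C-terminal capture, 4G8-HRP detection, A450); EC50 by sigmoidal fit normalized to DMSO and DAPT controls.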

Regarding `COc1nc(C2=NOCC(c3oc4ccccc4c3C)N2)ccc1-n1cnc(C)c1` (centres unmarked) [Example 16B, 3-(6-methoxy-5-(4-methyl-1H-imidazol-1-yl)pyridin-2-yl)-5-(3-methylbenzofuran-2-yl)-5,6-dihydro-4H-1,2,4-oxadiazine], a half-maximal effect (EC50) was put at 16.7 nM.

With `COc1nc(C2=NOCC(c3cc4cc(C(F)(F)F)ccc4o3)N2)ccc1-n1cnc(C)c1` (single isomer, unassigned; (-)) [Example 259A, (−)-3-(6-methoxy-5-(4-methyl-1H-imidazol-1-yl)pyridin-2-yl)-5-(5-(trifluoromethyl)benzofuran-2-yl)-5,6-dihydro-4H-1,2,4-oxadiazine], a half-maximal response (EC50) required 2460 nM.

For `COc1nc(C2=NOCC(c3cnn(C)c3)N2)ccc1-n1cnc(C)c1` (single isomer, unassigned; (+)) [Example 166B, (+)-3-(6-methoxy-5-(4-methyl-1H-imidazol-1-yl)pyridin-2-yl)-5-(1-methyl-1H-pyrazol-4-yl)-5,6-dihydro-4H-1,2,4-oxadiazine], the EC50 – broadly, the concentration giving half of the maximal effect – is more than 3000 nM.

On to `COc1ccc2c(C3CON=C(c4ccc(-n5cnc(C)c5)c(OC)n4)N3)cn(C)c2c1` (single isomer, unassigned; (+)) [Example 258B, (+)-5-(6-methoxy-1-methyl-1H-indol-3-yl)-3-(6-methoxy-5-(4-methyl-1H-imidazol-1-yl)pyridin-2-yl)-5,6-dihydro-4H-1,2,4-oxadiazine], for which a half-maximal response (EC50) required 23.5 nM.

In turn, `COc1nc(C2=NOCC(c3cn(C)c4cc(F)c(C)cc34)N2)ccc1-n1cnc(C)c1` (single isomer, unassigned; (-)) [Example 257A, (−)-5-(6-fluoro-1,5-dimethyl-1H-indol-3-yl)-3-(6-methoxy-5-(4-methyl-1H-imidazol-1-yl)pyridin-2-yl)-5,6-dihydro-4H-1,2,4-oxadiazine] returned an EC50 of 120 nM. Compared with the last compound, the EC50 is about 5.1-fold higher.

In turn, `COc1nc(C2=NOCC(c3ccc(C(F)(F)F)c(Cl)c3)N2)ccc1-n1cnc(C)c1` (single isomer, unassigned; (+)) [Example 262B, (+)-5-(3-chloro-4-(trifluoromethyl)phenyl)-3-(6-methoxy-5-(4-methyl-1H-imidazol-1-yl)pyridin-2-yl)-5,6-dihydro-4H-1,2,4-oxadiazine] came in with an EC50 of 10 nM.

For `COc1nc(C2=NOCC(c3nn(C)c4ccccc34)N2)ccc1-n1cnc(C)c1` (single isomer, unassigned; (+)) [Example 124B, (+)-3-(6-methoxy-5-(4-methyl-1H-imidazol-1-yl)pyridin-2-yl)-5-(1-methyl-1H-indazol-3-yl)-5,6-dihydro-4H-1,2,4-oxadiazine], a half-maximal effect (EC50) was put at 54.8 nM.

`COc1nc(C2=NOCC(c3cc4ccccc4o3)N2)ccc1-n1cnc(C)c1` (single isomer, unassigned; (-)) [Example 186A, (−)-5-(benzofuran-2-yl)-3-(6-methoxy-5-(4-methyl-1H-imidazol-1-yl)pyridin-2-yl)-5,6-dihydro-4H-1,2,4-oxadiazine] displayed an EC50 of 1170 nM.

The compound `COc1nc(C2=NOCC(c3oc4ccc(F)cc4c3C)N2)ccc1-n1cnc(C)c1` (single isomer, unassigned; (+)) [Example 101B, (+)-5-(5-fluoro-3-methylbenzofuran-2-yl)-3-(6-methoxy-5-(4-methyl-1H-imidazol-1-yl)pyridin-2-yl)-5,6-dihydro-4H-1,2,4-oxadiazine] displayed an EC50 of 10.8 nM.

`COc1nc(C2=NOCC(c3cn(C)c4cc(F)ccc34)N2)ccc1-n1cnc(C)c1` (single isomer, unassigned; (+)) [Example 192B, (+)-5-(6-fluoro-1-methyl-1H-indol-3-yl)-3-(6-methoxy-5-(4-methyl-1H-imidazol-1-yl)pyridin-2-yl)-5,6-dihydro-4H-1,2,4-oxadiazine] yielded an EC50 of 8.5 nM. The EC50 values of the last two compounds are within 1.5-fold of each other.

With `COc1nc(C2=NOCC(c3cn(C)c4ncc(Cl)cc34)N2)ccc1-n1cnc(C)c1` (single isomer, unassigned; (+)) [Example 264B, (+)-5-(5-chloro-1-methyl-1H-pyrrolo[2,3-b]pyridin-3-yl)-3-(6-methoxy-5-(4-methyl-1H-imidazol-1-yl)pyridin-2-yl)-5,6-dihydro-4H-1,2,4-oxadiazine], the midpoint of the response, the EC50, lay at 9.5 nM.

The compound `COc1nc(C2=NOCC(c3cc4c(Cl)cccc4o3)N2)ccc1-n1cnc(C)c1` (single isomer, unassigned; (-)) [Example 96A, (−)-5-(4-chlorobenzofuran-2-yl)-3-(6-methoxy-5-(4-methyl-1H-imidazol-1-yl)pyridin-2-yl)-5,6-dihydro-4H-1,2,4-oxadiazine] came in with a concentration for a half-maximal effect (EC50) of 1010 nM.

The compound `COc1nc(C2=NOCC(c3cn(C)c4ncc(C(F)(F)F)cc34)N2)ccc1-n1cnc(C)c1` (single isomer, unassigned; (-)) [Example 206A, (−)-3-(6-methoxy-5-(4-methyl-1H-imidazol-1-yl)pyridin-2-yl)-5-(1-methyl-5-(trifluoromethyl)-1H-pyrrolo [2,3-b]pyridin-3-yl)-5,6-dihydro-4H-1,2,4-oxadiazine] gave a half-maximal effective concentration (EC50) of 800 nM.

In turn, `COc1nc(C2=NOCC(c3ccc(Cl)cc3)N2)ccc1-n1cnc(C)c1` (single isomer, unassigned) [Example 42B, 5-(4-chlorophenyl)-3-(6-methoxy-5-(4-methyl-1H-imidazol-1-yl)pyridin-2-yl)-5,6-dihydro-4H-1,2,4-oxadiazine] displayed an EC50 of 28.3 nM.

Take `COc1nc(C2=NOCC(c3ccc4ncccc4c3)N2)ccc1-n1cnc(C)c1` (single isomer, unassigned; (+)) [Example 224B, (+)-3-(6-methoxy-5-(4-methyl-1H-imidazol-1-yl)pyridin-2-yl)-5-(quinolin-6-yl)-5,6-dihydro-4H-1,2,4-oxadiazine]: the 50% effective concentration (EC50) stood at 294 nM.

In the case of `COc1nc(C2=NOCC(C3Cc4ccccc4C3)N2)ccc1-n1cnc(C)c1` (single isomer, unassigned; (+)) [Example 246B, (+)-5-(2,3-dihydro-1H-inden-2-yl)-3-(6-methoxy-5-(4-methyl-1H-imidazol-1-yl)pyridin-2-yl)-5,6-dihydro-4H-1,2,4-oxadiazine], the EC50 came out at 25.7 nM.

Turning to `COc1nc(C2=NOCC(c3cn(C)c4cc(Cl)cc(OC)c34)N2)ccc1-n1cnc(C)c1` (single isomer, unassigned; (+)) [Example 254B, (+)-5-(6-chloro-4-methoxy-1-methyl-1H-indol-3-yl)-3-(6-methoxy-5-(4-methyl-1H-imidazol-1-yl)pyridin-2-yl)-5,6-dihydro-4H-1,2,4-oxadiazine], the EC50 is 12.9 nM.

For `COc1nc(C2=NOCC(c3csc4ccccc34)N2)ccc1-n1cnc(C)c1` (single isomer, unassigned; (-)) [Example 68A, (−)-5-(benzo [b]thiophen-3-yl)-3-(6-methoxy-5-(4-methyl-1H-imidazol-1-yl)pyridin-2-yl)-5,6-dihydro-4H-1,2,4-oxadiazine], the EC50 was 1090 nM.

The compound `COc1nc(C2=NOCC(c3ccc(Cl)cc3C)N2C)ccc1-n1cnc(C)c1` (single isomer, unassigned) [Example 27B, 5-(4-chloro-2-methylphenyl)-3-(6-methoxy-5-(4-methyl-1H-imidazol-1-yl)pyridin-2-yl)-4-methyl-5,6-dihydro-4H-1,2,4-oxadiazine] returned an EC50 of 61.3 nM.

`COc1nc(C2=NOCC(c3nc4ccccc4o3)N2)ccc1-n1cnc(C)c1` (single isomer, unassigned; (-)) [Example 203A, (−)-2-(3-(6-methoxy-5-(4-methyl-1H-imidazol-1-yl)pyridin-2-yl)-5,6-dihydro-4H-1,2,4-oxadiazin-5-yl)benzo[d]oxazole] displayed an EC50 of 2320 nM. Against the preceding compound, the EC50 is about 38-fold higher.

The compound `COc1nc(C2=NOCC(c3cn(C)c4ncc(Cl)cc34)N2)ccc1-n1cnc(C)c1` (single isomer, unassigned; (-)) [Example 264A, (−)-5-(5-chloro-1-methyl-1H-pyrrolo[2,3-b]pyridin-3-yl)-3-(6-methoxy-5-(4-methyl-1H-imidazol-1-yl)pyridin-2-yl)-5,6-dihydro-4H-1,2,4-oxadiazine] had an EC50 of 321 nM.

`COc1cn(-c2ccc(C3=NOCC(c4cc5cccc(C)c5o4)N3)nc2OC)cn1` (single isomer, unassigned; (+)) [Example 33, (+)-3-(6-methoxy-5-(4-methoxy-1H-imidazol-1-yl)pyridin-2-yl)-5-(7-methylbenzofuran-2-yl)-5,6-dihydro-4H-1,2,4-oxadiazine] had an EC50 (Homo sapiens) of 147 nM. In other words, the sub-micromolar range.

With `COc1nc(C2=NOCC(c3sc4ccccc4c3C)N2)ccc1-n1cnc(C)c1` (single isomer, unassigned; (+)) [Example 66B, (+)-3-(6-methoxy-5-(4-methyl-1H-imidazol-1-yl)pyridin-2-yl)-5-(3-methylbenzo [b]thiophen-2-yl)-5,6-dihydro-4H-1,2,4-oxadiazine], a half-maximal effect (EC50) was put at 9.1 nM.

Turning to `COc1nc(C2=NOCC(c3cn(C)c4cccc(C(F)(F)F)c34)N2)ccc1-n1cnc(C)c1` (single isomer, unassigned; (+)) [Example 230A, (+)-3-(6-methoxy-5-(4-methyl-1H-imidazol-1-yl)pyridin-2-yl)-5-(1-methyl-4-(trifluoromethyl)-1H-indol-3-yl)-5,6-dihydro-4H-1,2,4-oxadiazine], it took 105 nM to reach a half-maximal effect (EC50).

Regarding `COc1nc(C2=NOCC(CC(C)C)N2)ccc1-n1cnc(C)c1` (single isomer, unassigned; (-)) [Example 154B, (−)-5-isobutyl-3-(6-methoxy-5-(4-methyl-1H-imidazol-1-yl)pyridin-2-yl)-5,6-dihydro-4H-1,2,4-oxadiazine], the EC50 is 199 nM.

Compound `COc1nc(C2=NOCC(c3ccc(C(F)(F)F)c(F)c3)N2)ccc1-n1cnc(C)c1` (single isomer, unassigned) [Example 121B, 5-(3-fluoro-4-(trifluoromethyl)phenyl)-3-(6-methoxy-5-(4-methyl-1H-imidazol-1-yl)pyridin-2-yl)-5,6-dihydro-4H-1,2,4-oxadiazine] yielded an EC50 of 21.4 nM. Compared with the last compound, the EC50 is about 9.3-fold lower.
